Source: patent publication US11648284B2, “Composition for ameliorating psoriasis symptoms containing extract of Sphallerocarpus gracilis” (KOREA INSTITUTE OF SCIENCE AND TECHNOLOGY, priority 2020, dated 2023)

Columns and labels:
[1] = test system: psoriasis caused by imiquimod; assay: Epithelial thickness of back skin by H&E staining in imiquimod psoriasis animal model; format: in vivo, Balb/c mice; details: after treatment for a week, skin application, compared to the IMQ group
From the text: (§1) 6-week-old male Balb/c mice (Kangwon Life Science, Korea) were purchased and acclimated for a week, and psoriasis was induced using 5% imiquimod (Donga ST, Korea). FIG. 1 is a schematic experimental scheme of an animal model. Anti-psoriatic efficacy was investigated using a total of 20 animal models including 5 animals per experimental group.
(§2) In order to determine the effect of the extract of Sphallerocarpus gracilis on psoriasis caused by imiquimod, the experimental animals of Section 2-1 were used. The following four experimental groups were constructed and five animals were randomly assigned to each group:
Normal control without any treatment (Non-treatment control, NTC);
Disease group with psoriasis induced using imiquimod by the method of Section 2-1 (IMQ);
Group to the skin of which dexamethasone was applied every day after induction of psoriasis (Positive control, DEX); and
Group to the skin of which the extract of Sphallerocarpus gracilis of Example 1 was applied (Experimental group, M215) […]
After treatment for a week, the back skin tissue was removed from each animal, and then a paraffin block was prepared. The paraffin block was cut to 5 μm to prepare a slide sample, and then the change in the thickness of the skin tissue was measured through H&E staining.

[2] = test system: filaggrin, loricrin, keratin 1 and keratin 14; assay: Immunofluorescence of biomarkers for epithelial tissue damage in back skin of psoriasis animal model; format: in vivo, Balb/c mice; details: after treatment for a week, IMQ group decreased compared to non-treatment group
From the text: as §1, §2
The experiment was conducted by inducing psoriasis with IMQ cream and then performing daily application in the amount shown in FIG. 2 to the experimental group and the DEX group. FIG. 3 is an image showing the treatment group for 7 days compared to the psoriasis-induced model as the animal experimental model.
After treatment for a week, back skin tissue was removed from each animal and a paraffin block was then prepared. A paraffin block was cut to 5 μm to prepare a slide sample, and then the change in biomarkers for epithelial tissue damage due to psoriasis was measured through immunofluorescence.

C[C@@H]1C[C@H]2[C@@H]3CCC4=CC(=O)C=C[C@]4(C)[C@@]3(F)[C@@H](O)C[C@]2(C)[C@@]1(O)C(=O)CO [DEX, dexamethasone]
thickness of the epithelial layer [1]: decreased thickness
expression level of filaggrin [2]: increased
expression level of keratin 1 [2]: increased
expression level of keratin 14 [2]: increased
expression level of loricrin [2]: increased
